Where two headings read alike, the source gives them in different places.
How the values were obtained:
Type in all cases: in vivo
[1] = system: Venturia inaequalis (Apples); test: Foliar fungal disease test on plants: Venturia inaequalis (Apples); details: one or two days before inoculation
[2] = system: Thanatephorus cucumeries (Rice); test: Foliar fungal disease test on plants: Thanatephorus cucumeries (Rice); details: one or two days before inoculation
[3] = system: Puccinia recondita (Wheat); test: Foliar fungal disease test on plants: Puccinia recondita (Wheat); details: plants inoculated with Puccinia recondita 48 hours before treatment
[4] = system: Plasmopara viticola (Vines); test: Foliar fungal disease test on plants: Plasmopara viticola (Vines); details: one or two days before inoculation
Septoria nodorum (Wheat) = test: Foliar fungal disease test on plants: Septoria nodorum (Wheat); details: one or two days before inoculation
[5] = system: Phytophthora infestans (Tomatoes); details: one or two days before inoculation
[6] = system: Erysiphe graminis tritici (Wheat); test: Foliar fungal disease test on plants: Erysiphe graminis tritici (Wheat); details: plants inoculated 24 hours before treatment
[7] = system: Pyricularia oryzae (Rice); details: one or two days before inoculation
[8] = 100 ppm a.i. foliar spray or root drench (approx. 40 ppm in dry soil)
[9] = 100 ppm a.i. foliar spray or root drench

Row | SMILES | POCO (Percentage of Control) disease level, Venturia inaequalis (Apples) [1, 8] | POCO (Percentage of Control) disease level, Thanatephorus cucumeries (Rice) [2, 8] | POCO (Percentage of Control) disease level, Puccinia recondita (Wheat) [3, 9] | POCO (Percentage of Control) disease level, Plasmopara viticola (Vines) [4, 8] | POCO (Percentage of Control) disease level, Septoria nodorum (Wheat) (Septoria nodorum (Wheat); [8]) | POCO (Percentage of Control) disease level, Phytophthora infestans (Tomatoes) [5, 8] | POCO (Percentage of Control) disease level, Erysiphe graminis tritici (Wheat) [6, 8] | POCO (Percentage of Control) disease level, Pyricularia oryzae (Rice) [7, 8] | POCO (Percentage of Control) disease level, Venturia inaequalis (Apples) ([1]; 10 ppm foliar spray only) | POCO (Percentage of Control) disease level, Thanatephorus cucumeries (Rice) ([2]; 10 ppm foliar spray only) | POCO (Percentage of Control) disease level, Puccinia recondita (Wheat) ([3]; 10 ppm foliar spray only) | POCO (Percentage of Control) disease level, Plasmopara viticola (Vines) ([4]; 10 ppm foliar spray only) | POCO (Percentage of Control) disease level, Septoria nodorum (Wheat) (Septoria nodorum (Wheat); 10 ppm foliar spray only) | POCO (Percentage of Control) disease level, Phytophthora infestans (Tomatoes) ([5]; 10 ppm foliar spray only) | POCO (Percentage of Control) disease level, Erysiphe graminis tritici (Wheat) ([6]; 10 ppm foliar spray only) | POCO (Percentage of Control) disease level, Pyricularia oryzae (Rice) ([7]; 10 ppm foliar spray only)
1 | COC=C(C(=O)OC)c1ccccc1COC(=O)N1CCSCC1 [4 (133)] | 10 (10 = 5.1-10% disease present) | 60 (60 = 30.1-60% disease present) | 60+ (60 = 30.1-60% disease present) | 0 (0 = 0% disease present) | 90 (90 and 94 = 60.1-100% disease present) | 90 (90 and 94 = 60.1-100% disease present) | 90 (90 and 94 = 60.1-100% disease present) | 90 (90 and 94 = 60.1-100% disease present) |  |  |  |  |  |  |  | 
2 | COC=C(C(=O)OC)c1ccccc1COC(=O)N(C(C)=O)c1ccccc1Cl [12 (99)] | 5 (5 = 3.1-5% disease present) | 90 (90 and 94 = 60.1-100% disease present) | 30+ (30 = 20.1-30% disease present) | 0 (0 = 0% disease present) | 10 (10 = 5.1-10% disease present) | 90 (90 and 94 = 60.1-100% disease present) | 30 (30 = 20.1-30% disease present) | 10 (10 = 5.1-10% disease present) |  |  |  |  |  |  |  | 
3 | CO/C=C(/C(=O)OC)c1ccccc1COC(=O)NN1CCOCC1 [3 (133), (E)-methyl 3-methoxy-2-[2-(morpholinocarbamoyloxymethyl)phenyl]propenoate] | 60 (60 = 30.1-60% disease present) | 90 (90 and 94 = 60.1-100% disease present) | 90+ (90 and 94 = 60.1-100% disease present) | 90 (90 and 94 = 60.1-100% disease present) | 90 (90 and 94 = 60.1-100% disease present) | 90 (90 and 94 = 60.1-100% disease present) | 90 (90 and 94 = 60.1-100% disease present) | 90 (90 and 94 = 60.1-100% disease present) |  |  |  |  |  |  |  | 
4 | COC=C(C(=O)OC)c1ccccc1COC(=O)Nc1ccccc1OC [16 (1)] | 60 (60 = 30.1-60% disease present) | 90 (90 and 94 = 60.1-100% disease present) | 90+ (90 and 94 = 60.1-100% disease present) | 0 (0 = 0% disease present) | 90 (90 and 94 = 60.1-100% disease present) | 90 (90 and 94 = 60.1-100% disease present) | 90 (90 and 94 = 60.1-100% disease present) | 20 (20 and 24 = 10.1-20% disease present) |  |  |  |  |  |  |  | 
5 | COC=C(C(=O)OC)c1ccccc1COC(=O)Nc1ccc(F)c(F)c1 [28 (1)] |  |  |  |  |  |  |  |  | 60 (60 = 30.1-60% disease present) | 90 (90 and 94 = 60.1-100% disease present) | 5+ (5 = 3.1-5% disease present) | 30 (30 = 20.1-30% disease present) | 30 (30 = 20.1-30% disease present) | 90 (90 and 94 = 60.1-100% disease present) | 90 (90 and 94 = 60.1-100% disease present) | 0 (0 = 0% disease present)
6 | COC=C(C(=O)OC)c1ccccc1COC(=O)N(CC(F)F)c1cccc([N+](=O)[O-])c1 [6 (5)] |  |  |  |  |  |  |  |  | 0 (0 = 0% disease present) | 90 (90 and 94 = 60.1-100% disease present) | 90+ (90 and 94 = 60.1-100% disease present) | 90 (90 and 94 = 60.1-100% disease present) | 90 (90 and 94 = 60.1-100% disease present) | 90 (90 and 94 = 60.1-100% disease present) | 20 (20 and 24 = 10.1-20% disease present) | 60 (60 = 30.1-60% disease present)
7 | COC=C(C(=O)OC)c1ccccc1COC(=O)N1CCCCC1 [2 (133)] | 5 (5 = 3.1-5% disease present) | 90 (90 and 94 = 60.1-100% disease present) | 90+ (90 and 94 = 60.1-100% disease present) | 5 (5 = 3.1-5% disease present) | 90 (90 and 94 = 60.1-100% disease present) | 90 (90 and 94 = 60.1-100% disease present) | 60 (60 = 30.1-60% disease present) | 20 (20 and 24 = 10.1-20% disease present) |  |  |  |  |  |  |  | 
8 | CCN(C(=O)OCc1ccccc1C(=COC)C(=O)OC)c1ccc(F)c(F)c1 [28 (3)] | 0 (0 = 0% disease present) | 0 (0 = 0% disease present) | 0+ (0 = 0% disease present) | 0 (0 = 0% disease present) | 0 (0 = 0% disease present) | 20 (20 and 24 = 10.1-20% disease present) | 0 (0 = 0% disease present) | 1 (1 = 0.1-1% disease present) |  |  |  |  |  |  |  | 
9 | COC=C(C(=O)OC)c1ccccc1COC(=O)n1ccc2ccccc21 [1 (133)] |  |  |  |  |  |  |  |  | 30 (30 = 20.1-30% disease present) | 60 (60 = 30.1-60% disease present) | 90+ (90 and 94 = 60.1-100% disease present) | 0 (0 = 0% disease present) | 90 (90 and 94 = 60.1-100% disease present) | 90 (90 and 94 = 60.1-100% disease present) | 90 (90 and 94 = 60.1-100% disease present) | 90 (90 and 94 = 60.1-100% disease present)

— patent US6465457B1 (priority 1991, dated 2002)
